{"source": "patent US7691624B2", "about": "“Cancer cell detecting devices” (Academia Sinica, priority 2003, dated 2010)", "key": {"[1]": {"test_system": "tested normal cells (HaCaT, Detroit-551, IMR-90, BJ-1)", "assay": "Cancer cell diagnosis by wide-field fluorescence microscopy", "assay_type": "cell-based", "settings": "each type of tested normal cells; 0.1 μM, 3-6 hours", "method": "A wide-field fluorescence microscopy was custom made for diagnosing cancer cells. The microscopy consists of an Ar^+ laser (Coherent Inc. Santa Clara, Calif.) as the light source, a sensitive cooled charged-coupled device (CCD) camera (DV465-UV, Andor Technology, South Windsor, Conn.) for imaging, and two avalanche photodiodes (APDs) for transient photoluminescence measurement. Excitation and imaging were conducted by an oil immersion microscope objective with a numerical aperture of 1.3. A dichroism mirror (Omega) was used to direct the fluorescence into the CCD camera. A holographic notch filter (Oriel) was used to block the backscattered laser light. Images of 250×250 pixels were recorded at a high speed. The imaged area was 50×50 μm^2 and the spatial resolution was about 2 pixels.\nThe following cells were tested: CL1-1 human lung cancer cells, H1299 lung cancer cells, hTERT-BJ lung cancer cells, Ca9-22 oral cancer cells, HeLa cervical cancer cells, KJ-1 nasopharyngeal cancer cells, HaCaT keratinocyte cells, Detroit-551 skin normal cells, IMR-90 lung normal cells, and BJ-1 lung fibroblast cells. Specifically, cells were incubated with 0.1 μM of compound 2 in a culture medium for 3-6 hours. The non-fixed cells were washed three times with phosphate-buffered saline and then studied under the wide-field fluorescence microscope."}, "[2]": {"test_system": "Hum24 quadruplex", "assay": "Temperature-dependent CD analysis", "assay_type": "binding, human", "excerpt": "Eight DNA quadruplexes and their complexes with compound 2 were subjected to CD analysis. CD spectra were averaged 10 scans on a Jasco J-715 spectropolarimeter with a 2 nm bandwidth. The scan speed was 50 nm/min and the step resolution was 0.2 nm.\nFurther, Hum24 and its complexes with compounds 2, 4, 6, and 8 were subjected to temperature-dependent CD analysis."}, "[3]": {"test_system": "AT, LD, GC, G10, LQ1, LQ2, LQ4, Tet12, Oxy12, Hum12, Apt, Oxy28, and Hum24", "assay": "Post-stained polyacrylamide gel electrophoresis", "assay_type": "binding", "settings": "gels post-stained with 10 μM compound, 254 nm UV light", "method": "Compound 2 and its complexes with DNA quadruplexes were further studied by polyacrylamide gel eletrophoresis (PAGE). More specifically, compound 2/DNA quadruplexes described above were analyzed by PAGE in 20% native gels in 10 mM Tris-HCI and 150 mM NaCl (pH 7.5). Gel electrophoresis was carried out in an electric field of 100 V/cm at 4° C. for 15 hours. DNA concentrations were determined by absorbencies at 260 nm and were adjusted to about 10 μM per unit structure. After photographing with UV shadowing, gels were post-stained in a solution containing 10 μM of compound 2, 10 mM Tris-HCl, and 150 mM NaCl (pH 7.5) at room temperature for 10 seconds. The gels were then rinsed by distilled water and photographed under 254 nm UV light using a digital camera.\nGels were post-stained with compound 2 after electrophoresis of AT, LD, GC, G10, LQ1, LQ2, LQ4, Tet12, Oxy12, Hum12, Apt, Oxy28, and Hum24 was complete. […] In particular, most DNAs migrated in the gel in a single band, but Tet12 and LQ4 migrated in two bands."}, "[4]": {"test_system": "DNA quadruplex", "assay": "Fluorescence analysis of compound/DNA complex", "assay_type": "binding", "method": "(§1) Compound 2 was mixed with eleven DNAs and subjected to fluorescence analysis at λex≈430 nm, using a Hitachi F4010 spectrofluorimeter with a 2 nm bandwidth in a 1-cm cell. Fluorescence analysis was also carried out for compound 4 in the presence of Hum24. […] Further, the fluorescence peaks for a complex of compound 2 and a DNA duplex and a complex of compound 2 and a DNA quadruplex were at ˜550 nm and ˜575 nm, respectively."}, "[5]": {"test_system": "DNA duplex", "assay": "Fluorescence analysis of compound/DNA complex", "assay_type": "binding", "settings": "complex with a DNA duplex, λex≈430 nm", "method": "as §1"}, "[6]": {"test_system": "Oxy12", "assay": "Pre-stained gel electrophoresis selectivity assay", "assay_type": "binding", "settings": "0.1 μM compound, 10 μM DNA, 254 nm UV light", "method": "(§2) Pre-stained gels were used for selectivity assays. A 0.1 μM compound 2 solution was initially incubated with 10 μM of different DNA solutions for 10 minutes. Gel electrophoresis was then carried out in an electric field of 100 V/cm at 4° C. for 6 hours. All of the pre-stained gels were photographed under 254 nm UV light using a Bio-Rad imaging detector.\n(§3) Gels pre-stained with compound 2 were used before running electrophoresis for AT, LD, GC, G10, LQ1, LQ2, LQ4, Tet12, Oxy12, Hum12, Apt, Oxy28, and Hum24. […] This third band is ascribed to be a linear tetramer of Tet12."}, "[7]": {"test_system": "LQ1", "assay": "Pre-stained gel electrophoresis selectivity assay", "assay_type": "binding", "settings": "0.1 μM compound, 10 μM DNA, 254 nm UV light", "method": "as §2, §3"}, "[8]": {"test_system": "Apt", "assay": "Pre-stained gel electrophoresis selectivity assay", "assay_type": "binding", "settings": "0.1 μM compound, 10 μM DNA, 254 nm UV light", "method": "as §2, §3"}, "[9]": {"test_system": "AT", "assay": "Pre-stained gel electrophoresis selectivity assay", "assay_type": "binding", "settings": "0.1 μM compound, 10 μM DNA, 254 nm UV light", "method": "as §2, §3"}, "[10]": {"test_system": "Hum12", "assay": "Pre-stained gel electrophoresis selectivity assay", "assay_type": "binding", "settings": "0.1 μM compound, 10 μM DNA, 254 nm UV light", "method": "as §2, §3"}, "[11]": {"test_system": "LQ2", "assay": "Pre-stained gel electrophoresis selectivity assay", "assay_type": "binding", "settings": "0.1 μM compound, 10 μM DNA, 254 nm UV light", "method": "as §2, §3"}, "[12]": {"test_system": "GC", "assay": "Pre-stained gel electrophoresis selectivity assay", "assay_type": "binding", "settings": "0.1 μM compound, 10 μM DNA, 254 nm UV light", "method": "as §2, §3"}, "[13]": {"test_system": "LD", "assay": "Pre-stained gel electrophoresis selectivity assay", "assay_type": "binding", "settings": "0.1 μM compound, 10 μM DNA, 254 nm UV light", "method": "as §2, §3"}, "[14]": {"test_system": "G10", "assay": "Pre-stained gel electrophoresis selectivity assay", "assay_type": "binding", "settings": "0.1 μM compound, 10 μM DNA, 254 nm UV light", "method": "as §2, §3"}, "[15]": {"assay": "Absorption analysis of the free compound", "assay_type": "physicochemical", "settings": "compound alone, before adding DNA", "method": "Each oligonucleotide described above was mixed with a solution of 10 mM Tris-HCl (pH 7.5) and 150 mM NaCl and was denatured at 90° C. for 2 min. The mixture was then cooled slowly to room temperature and stored at 4° C. for more than 2 days before use. A test compound was then added to this solution to form a compound/DNA complex. The resultant complex was subjected to absorption analysis using a Hitachi U3200 UV-visible spectrophotometer.\nThe absorption spectra were taken for compound 2 and its complex with each oligonucleotide. […] In addition, the molar absorption coefficient decreased by ˜15% in the presence of a DNA duplex and ˜35% in the presence of a DNA quadruplex. 10 These spectra changes indicate that compound 2 binds to duplexes and quadruplexes."}}}
{"smiles": "C[n+]1ccc(C=Cc2ccc3[nH]c4ccc(C=Cc5cc[n+](C)cc5)cc4c3c2)cc1.[I-].[I-]", "note": "[Compound 2, 3,6-bis-(2-(1-methylpyridinium-4-yl)-vinyl)-9H-carbazole diiodide]", "values": [{"measurement": "percentage of cells exhibiting bright fluorescence in the nucleus", "setting": "[1]", "value": "less than 20%"}, {"measurement": "melting temperature of Hum24 quadruplex in the presence of compound", "setting": "[2]", "value": "increased"}, {"measurement": "fluorescence bands in post-stained gels", "setting": "[3]", "value": "most DNAs exhibited fluorescence bands"}, {"measurement": "binding preference", "setting": "[4]; DNA quadruplex versus DNA duplex, fluorescence analysis", "value": "higher binding preference to a DNA quadruplex than to a DNA duplex"}, {"measurement": "fluorescence peak of complex", "setting": "[4]; complex with a DNA quadruplex, λex≈430 nm", "value": "~575", "unit": "nm"}, {"measurement": "fluorescence peak of complex", "setting": "[5]", "value": "~550", "unit": "nm"}, {"measurement": "melting point", "value": "> 300", "unit": "°C"}, {"measurement": "fluorescence band in pre-stained gel", "setting": "[6]", "value": "exhibited fluorescence bands"}, {"measurement": "fluorescence band in pre-stained gel", "setting": "[7]", "value": "no fluorescence bands"}, {"measurement": "fluorescence band in pre-stained gel", "setting": "[8]", "value": "weak fluorescence bands"}, {"measurement": "fluorescence band in pre-stained gel", "setting": "[9]", "value": "weak fluorescence bands"}, {"measurement": "fluorescence band in pre-stained gel", "setting": "[10]", "value": "weak fluorescence bands"}, {"measurement": "fluorescence band in pre-stained gel", "setting": "[11]", "value": "exhibited fluorescence bands"}, {"measurement": "fluorescence band in pre-stained gel", "setting": "[12]", "value": "no fluorescence bands"}, {"measurement": "fluorescence band in pre-stained gel", "setting": "[13]", "value": "weak fluorescence bands"}, {"measurement": "fluorescence band in pre-stained gel", "setting": "[14]", "value": "no fluorescence bands"}, {"measurement": "absorption peak", "setting": "[15]", "value": "~435", "unit": "nm"}]}
